Legend:
integumentary wound = assay: General statements on tests of topical formulations on integumentary wounds; settings: in vivo
Recalcitrant wounds = assay: Further trials of topical formulations F21 to F30, nine patients; assay type: in vivo, human; settings: use of the component in the formulations compared to no use of it
Method: Topical formulations were prepared in aliquots using the following proportions—in F21, F22, and F27 to F30, the specified amounts of CBD and THCa were supplied in 2 ml of total oil volume; in F23 and F24, the specified amount of THCa was supplied in 2 ml of total oil volume and the specified amount of CBD was supplied in 4 ml of total oil volume; in F25 and F26, the specified amount of CBD was supplied in 3 ml of total oil volume:
Recalcitrant wounds of nine were treated with Formulations F21 to F30. Formulations F21, F23, F25, F27 and F29, compounded in a mixture of hyaluronic acid and aloe vera gel, were applied to wound beds. Formulations F22, F24, F26, F28 and F30, compounded in liposomal base, were applied to periwound areas. […]

Row | Structure (SMILES) | wound healing effects compared with decarboxylated tetrahydrocannabinol (THC) (integumentary wound) | more rapid closure of wounds (cm^2/day), average (Recalcitrant wounds) [times]
1 | CCCCCc1cc2c(c(O)c1C(=O)O)[C@@H]1C=C(C)CC[C@H]1C(C)(C)O2 [THCa, tetrahydrocannabinolic acid] | better wound healing effects | 5.3
2 | C=CC(C)(O)CCC=C(C)C (stereo not drawn) [linalool] | – | 3.8

Reference: US20220401406A1, “TOPICAL FORMULATIONS AND INSTILLATES, KITS, AND METHODS FOR TREATING INT[…], AND USES THEREOF” (VinSan Therapeutics Inc., priority 2019, published 2022)
